Converted amounts (≈) assume the structure as drawn.
How the values were obtained:
[1] = tested on: Aspergillus fumigatus (NCPF2010); assay: Resazurin-microtitre assay of planktonic fungal growth; format: cell-based; details: Aspergillus fumigatus; for MIC: read-out: Planktonic fungal growth MIC75
Experimental: This assay was conducted using a modified, published method (Monteiro et al., 2012). Spores of Aspergillus fumigatus (NCPF2010, Public Health England, Wiltshire) were cultured in Sabouraud dextrose agar for 3 days. A stock spore suspension was prepared from a Sabouraud dextrose agar culture by washing with PBS-tween (10 mL; PBS containing 0.05% Tween-20, 100 U/mL Penicillin and 100 U/mL Streptomycin). The spore count was assessed using a Neubauer haemocytometer and, using PBS, adjusted to 10^6 spores/mL. A working suspension of spores (10^4 spores/mL) was prepared in filter sterilised MOPS RPMI-1640 (50 mL; RPMI-1640 containing 2 mM L-glutamine, 2% glucose and 0.165 M MOPS, buffered to pH 7 with NaOH). Resazurin sodium salt (100 μL of 1% solution; Sigma-Aldrich, Dorset, UK) was added to the spore suspension and mixed well. The spore suspension-resazurin mixture (100 μL/well) was added to 384-well plates (Catalogue number 353962, BD Falcon, Oxford, UK). Simultaneously, test compounds (0.5 μL DMSO solution) were added to 100 μL of the spore-resazurin mixture in quadruplicate to provide a final DMSO solution of 0.5% using an Integra VIAFLO 96 (Intergra, Zizers, Switzerland). For non-spore control wells, MOPS-RPMI-resazurin solution (100 μL) was added instead of the spore-resazurin mixture. The plate was covered with a Breathe Easier membrane (Catalogue No Z763624, Sigma-Aldrich, Dorset, UK), and incubated (35° C., 5% CO2) until fluorescence in the inoculated wells was double that of the control wells (around 24 hr). The fluorescence of each well (545 nm (excitation)/590 nm (emission), gain 800, focal height 5.5 mm) was determined using a multi-scanner (Clariostar: BMG, Buckinghamshire, UK). The percentage inhibition for each well was calculated and the MIC50, MIC75 and MIC90 values were calculated from the concentration-response curve generated for each test compound.

Aspergillus flavus = assay: Fungus panel screening, CLSI broth microdilution; format: cell-based; details: strain ATCC204304, visual inspection (CLSI); for MIC: read-out: MIC100
Experimental: (§1) Fungus panel screening was conducted by Eurofins Panlabs Inc. The MIC and MIC50 values of the test articles were determined following the guidelines of the Clinical and Laboratory Standards Institute, broth microdilution methods for yeast (CLSI M27-A2), (CLSI, 2002) and for filamentous fungi (CLSI M38-A), (CLSI, 2008).

Cryptococcus neoformans = assay: Fungus panel screening, CLSI broth microdilution; format: cell-based; details: strain ATCC24067, visual inspection (CLSI); for MIC: read-out: MIC100
Experimental: as §1

[2] = tested on: Aspergillus fumigatus (TR34-L98H strain); assay: Aspergillus fumigatus invasion in human alveoli bilayers (transwells), GM in lower chamber; format: cell-based; details: Compound (I) 1 μg/mL upper chamber, Posaconazole 0.1 μg/mL lower chamber
Experimental: In vitro models of human alveoli, consisting of a bilayer of human alveolar epithelial cells and endothelial cells, were prepared as previously described (Hope et al., 2007). This system allows administration of a test compound to the upper (“air” space) and/or lower (“systemic” space) compartments. This flexibility has been exploited to explore the effects of combination treatments by dosing Compound (I) to the upper chamber and posaconazole or other anti-fungal agents to the lower chamber. Primary human pulmonary artery endothelial cells (HPAEC) were harvested and diluted to 10^6 cells/mL in EGM-2 media (Lonza, Basel, Switzerland). Transwells were inverted and the cell suspension (100 μL/well) was applied to the base of each transwell. The inverted transwells were incubated at RT within a flow hood for 2 hr after which they were turned upright. EGM-2 media was added to the lower (700 μL/well) and upper (100 μL/well) compartments and the transwells were incubated for 48 hr (37° C., 5% CO2). The EGM-2 media in the lower compartment was then replaced with fresh EGM-2 media. A549 cells were harvested and diluted to 5×10^5 cells/mL in 10% EBM, then added to the upper compartment (100 μL/well) of all transwells and the plates incubated for 72 hr (37° C., 5% CO2). Conidia of Aspergillus fumigatus (the itraconazole sensitive strain NCPF2010 and the itraconazole resistant strain TR34-L98H) were cultured separately in Sabouraud dextrose agar for 3 days. A stock conidia suspension of either strain was prepared from a Sabouraud dextrose agar culture by washing with PBS-tween (10 mL; PBS containing 0.05% Tween-20, 100 U/mL Penicillin and 100 U/mL Streptomycin). The conidia count was assessed using a Neubauer haemocytometer and adjusted to 10^6 conidia/mL with PBS. A working stock of conidia was prepared in EBM (conc of 10^5 conidia/mL) immediately prior to use.
Test and reference compounds (or neat DMSO as the vehicle) were added to the appropriate wells of 24-well plates (3 μL/well containing 600 μL of 2% FBS EBM) for lower compartment treatment and to 96-well plates (1 μL/well containing 200 μL of 2% FBS EBM) for the treatment of the upper compartment, to provide a final DMSO concentration of 0.5%. The media in the upper compartment was aspirated and that containing the appropriate test and reference compounds, or vehicle, were added (100 μL/well). Transwells were then transferred into the 24-well plate containing the test and reference compounds or DMSO vehicle. After incubation for 1 hr (35° C., 5% CO2) the conidia suspension (10 μL/well) was added to the upper compartment of each transwell. Plates were then incubated for 24 hr (35° C., 5% CO2). Supernatants from each compartment (5 μL/compartment) were collected and stored (−20° C.). Media was replaced daily after collection of the supernatants and all wells were treated with test and reference compounds or with DMSO, as described above, for 3 days. Samples continued to be collected until fungal growth was visible by eye in all transwells. The levels of GM in the supernatant in lower compartment were then measured by ELISA (BioRad, CA, USA) as an index of Aspergillus fumigatus invasion.

[3] = tested on: Aspergillus fumigatus (ATCC 13073); assay: Survival of severely immunocompromised, neutropenic mice infected with Aspergillus fumigatus, monotherapy or combination; format: in vivo; details: Compound (I) 0.4 mg/mL (in), Posaconazole 1 mg/kg (po), once daily days 1-6
Experimental: On day 0, animals were infected intranasally with 35 μL of the spore suspension (1.67×10^8 spores/mL in physiological saline) of Aspergillus fumigatus (ATCC 13073 [strain: NIH 5233]). Compound (I) prepared as a suspension in isotonic saline (0.4 mg/mL) was dosed once daily by an intra-nasal injection (35 μL/mouse) on days 1-6 after infection. Posaconazole (1 mg/kg) was given orally once daily on days 1-6 after infection. Body weight and survival were monitored daily up to day 7.

For `CC[C@@H]([C@H](C)O)n1ncn(-c2ccc(N3CCN(c4ccc(OC[C@@H]5CO[C@@](Cn6cncn6)(c6ccc(F)cc6F)C5)cc4)CC3)cc2)c1=O` [Posaconazole], the MIC50 [1] was 3.64 nM (≈ 2.55 ng/mL), the MIC [1] was 6.94 nM (≈ 4.86 ng/mL) and the MIC50 (Aspergillus flavus) was 0.063 µg/mL (≈ 0.0899 µM). For the same molecule, the MIC (Aspergillus flavus) was 0.13 µg/mL (≈ 0.186 µM), the MIC50 (Cryptococcus neoformans) was 0.016 µg/mL (≈ 0.0228 µM) and the MIC (Cryptococcus neoformans) was 0.25 µg/mL (≈ 0.357 µM). For the same molecule, the “DFB50 (days taken to reach a fungal burden of 50% of control)” value [2] was 1.64 days, the “GM Levels in the Lower Chamber, OD value” ([2]; Treatment Day 0) was 0 OD and the “GM Levels in the Lower Chamber, % inhibition vs. control” value ([2]; Treatment Day 1) was 88%. The “GM Levels in the Lower Chamber, OD value” ([2]; Treatment Day 1) was 0.039 OD, the “GM Levels in the Lower Chamber, % inhibition vs. control” value ([2]; Treatment Day 2) was −2.7% and the “GM Levels in the Lower Chamber, OD value” ([2]; Treatment Day 2) was 1.02 OD. For the same molecule, the “GM Levels in the Lower Chamber, % inhibition vs. control” value ([2]; Treatment Day 3) was 1.7%, the “GM Levels in the Lower Chamber, OD value” ([2]; Treatment Day 3) was 0.97 OD and the “GM Levels in the Lower Chamber, % inhibition vs. control” value ([2]; Treatment Day 4) was −1.4%. For the same molecule, the “GM Levels in the Lower Chamber, OD value” ([2]; Treatment Day 4) was 1.02 OD, the Median survival [3] was 6.5 days and the “No. of survivors on day 7” value [3] was 0/6. The “survivors on day 7 (%)” value [3] was 0%.

With `C[C@@H](c1ncncc1F)[C@](O)(Cn1cncn1)c1ccc(F)cc1F` [Voriconazole] the MIC50 [1] was 90.8 nM (≈ 31.7 ng/mL) and the MIC [1] was 168 nM (≈ 58.7 ng/mL).

`Cc1cc(N2CCN(c3ccc(C(=O)Nc4ccc(F)cc4)cc3)CC2)ccc1OC[C@@H]1CO[C@@](Cn2cncn2)(c2ccc(F)cc2F)C1` [Compound (I), 4-(4-(4-(((3R,5R)-5-((1H-1,2,4-triazol-1-yl)methyl)-5-(2,4-difluorophenyl)tetrahydrofuran-3-yl)methoxy)-3-methylphenyl)piperazin-1-yl)-N-(4-fluorophenyl)benzamide] was tested, and the MIC50 [1] was 1.98 nM (≈ 1.35 ng/mL), the MIC [1] was 5.02 nM (≈ 3.43 ng/mL) and the MIC50 (Aspergillus flavus) was 1 µg/mL (≈ 1.46 µM). The MIC (Aspergillus flavus) was > 8 µg/mL, the MIC50 (Cryptococcus neoformans) was 0.008 µg/mL (≈ 0.0117 µM) and the MIC (Cryptococcus neoformans) was 1 µg/mL (≈ 1.46 µM). For the same molecule, the “DFB50 (days taken to reach a fungal burden of 50% of control)” value [2] was 1.10 days, the “GM Levels in the Lower Chamber, OD value” ([2]; Treatment Day 0) was 0 OD and the “GM Levels in the Lower Chamber, OD value” ([2]; Treatment Day 1) was 0.35 OD. For the same molecule, the “GM Levels in the Lower Chamber, OD value” ([2]; Treatment Day 2) was 0.99 OD, the “GM Levels in the Lower Chamber, OD value” ([2]; Treatment Day 3) was 0.99 OD and the “GM Levels in the Lower Chamber, OD value” ([2]; Treatment Day 4) was 1.01 OD. For the same molecule, the Median survival [3] was 6 days, the “No. of survivors on day 7” value [3] was 0/6 and the “survivors on day 7 (%)” value [3] was 0%.

Source: patent US20210238169A1, “PROCESS FOR PREPARING A COMPOUND OF FORMULA (XIII)” (PULMOCIDE LIMITED, priority 2014, published 2021)
